Data taken from the supplement of paper PMC5303821, “Major sulfonate transporter Soa1 in Saccharomyces cerevisiae and considerable substrate diversity in its fungal family” (Nature Communications, 2017).

Columns and labels:
Details in all cases: sulfur source concentration 200 µM; S. cerevisiae S288C/BY sul1Δ sul2Δ soa1Δ with transporter ortholog inserted at SOA1 locus; sulfur-free B medium, 4% glucose, pH 6.5, sole sulfur source
[1] = tested on: Metarhizium robertsii_XP_007821441; assay: maximal culture density with compound as sole sulfur source (OD600); higher = better growth
Procedure: (§1)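 S. cerevisiae sul1Δ sul2Δ soa1Δ strains expressing 20 fungal SOA1 orthologs (or no transporter, 'soa1 del') were grown in liquid sulfur-free B medium, 4% glucose, pH 6.5 (7 mM K2HPO4). The strains were sulfur-starved for 3 days beforehand. Each sulfur compound was the sole sulfur source at 200 µM (sulfate also at 40 mM). OD600 curves of duplicate cultures were averaged and fitted (logistic / Richards, GroFit) to give maximal growth rate, maximal density and lag phase; temperature not stated.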

[2] = tested on: Ogataea parapolymorpha_XP_013935289; assay: as above
Procedure: as §1

[3] = tested on: Aspergillus nidulans (IAM 2006)_astA; assay: as above
Procedure: as §1

[4] = tested on: Metarhizium robertsii_XP_007822519; assay: as above
Procedure: as §1

[5] = tested on: Aspergillus nidulans_XP_660670; assay: as above
Procedure: as §1

[6] = tested on: Saccharomyces uvarum_SOA2; assay: as above
Procedure: as §1

[7] = tested on: Saccharomyces uvarum_SOA1; assay: as above
Procedure: as §1

[8] = tested on: Ogataea parapolymorpha_XP_013932458; assay: as above
Procedure: as §1

[9] = tested on: Metarhizium robertsii_XP_007823832; assay: as above
Procedure: as §1

[10] = tested on: Saccharomyces eubayanus_SOA2; assay: as above
Procedure: as §1

[11] = tested on: Aspergillus nidulans_XP_661733; assay: as above
Procedure: as §1

[12] = tested on: Ogataea parapolymorpha_XP_013936897; assay: as above
Procedure: as §1

[13] = tested on: Aspergillus nidulans_XP_661711; assay: as above
Procedure: as §1

[14] = tested on: Aspergillus nidulans_XP_660563; assay: as above
Procedure: as §1

[15] = tested on: Fusarium oxysporum_ENH65823; assay: as above
Procedure: as §1

[16] = tested on: Saccharomyces eubayanus_SOA1; assay: as above
Procedure: as §1

[17] = tested on: Aspergillus nidulans_CBF74694; assay: as above
Procedure: as §1

soa1 del [18] = assay: as above
Procedure: as §1

[19] = tested on: Aspergillus nidulans_CBF80346; assay: as above
Procedure: as §1

[20] = tested on: Saccharomyces cerevisiae_SOA1; assay: as above
Procedure: as §1

[21] = tested on: Aspergillus nidulans_XP_681611; assay: as above
Procedure: as §1

[22] = tested on: Ogataea parapolymorpha_XP_013935289; assay: lag phase before growth; higher = slower start of growth
Procedure: as §1

[23] = tested on: Saccharomyces uvarum_SOA2; assay: as above
Procedure: as §1

[24] = tested on: Saccharomyces cerevisiae_SOA1; assay: as above
Procedure: as §1

[25] = tested on: Metarhizium robertsii_XP_007821441; assay: maximal growth rate with compound as sole sulfur source (OD600 per h); higher = better growth / uptake of the sulfur source
Procedure: as §1

[26] = tested on: Ogataea parapolymorpha_XP_013935289; assay: as above
Procedure: as §1

[27] = tested on: Aspergillus nidulans (IAM 2006)_astA; assay: as above
Procedure: as §1

[28] = tested on: Metarhizium robertsii_XP_007822519; assay: as above
Procedure: as §1

[29] = tested on: Aspergillus nidulans_XP_660670; assay: as above
Procedure: as §1

[30] = tested on: Saccharomyces uvarum_SOA2; assay: as above
Procedure: as §1

[31] = tested on: Saccharomyces uvarum_SOA1; assay: as above
Procedure: as §1

[32] = tested on: Ogataea parapolymorpha_XP_013932458; assay: as above
Procedure: as §1

[33] = tested on: Metarhizium robertsii_XP_007823832; assay: as above
Procedure: as §1

[34] = tested on: Saccharomyces eubayanus_SOA2; assay: as above
Procedure: as §1

[35] = tested on: Aspergillus nidulans_XP_661733; assay: as above
Procedure: as §1

[36] = tested on: Ogataea parapolymorpha_XP_013936897; assay: as above
Procedure: as §1

[37] = tested on: Aspergillus nidulans_XP_661711; assay: as above
Procedure: as §1

[38] = tested on: Aspergillus nidulans_XP_660563; assay: as above
Procedure: as §1

[39] = tested on: Fusarium oxysporum_ENH65823; assay: as above
Procedure: as §1

[40] = tested on: Saccharomyces eubayanus_SOA1; assay: as above
Procedure: as §1

[41] = tested on: Aspergillus nidulans_CBF74694; assay: as above
Procedure: as §1

soa1 del [42] = assay: as above
Procedure: as §1

[43] = tested on: Aspergillus nidulans_CBF80346; assay: as above
Procedure: as §1

[44] = tested on: Saccharomyces cerevisiae_SOA1; assay: as above
Procedure: as §1

[45] = tested on: Aspergillus nidulans_XP_681611; assay: as above
Procedure: as §1

NCCS(=O)(=O)O [Taurine]
maximal culture density [1]: 0.219 | maximal culture density [2]: 1.6 | maximal culture density [3]: 0.515 | maximal culture density [4]: 0.213 | maximal culture density [5]: 0.214 | maximal culture density [6]: 0.828 | maximal culture density [7]: 0.292 | maximal culture density [8]: 0.245 | maximal culture density [9]: 0.498 | maximal culture density [10]: 0.258 | maximal culture density [11]: 0.228 | maximal culture density [12]: 0.317 | maximal culture density [13]: 0.215 | maximal culture density [14]: 0.311 | maximal culture density [15]: 0.195 | maximal culture density [16]: 0.284 | maximal culture density [17]: 0.187 | maximal culture density (soa1 del [18]): 0.217 | maximal culture density [19]: 0.217 | maximal culture density [20]: 1.4 | maximal culture density [21]: 0.305 | lag phase before growth [22]: 7.77 h | lag phase before growth [23]: 7.75 h | lag phase before growth [24]: 9.53 h | maximal growth rate [25]: 0.0033 | maximal growth rate [26]: 0.0523 | maximal growth rate [27]: 0.0198 | maximal growth rate [28]: 0.00328 | maximal growth rate [29]: 0.00383 | maximal growth rate [30]: 0.0111 | maximal growth rate [31]: 0.00382 | maximal growth rate [32]: 0.00448 | maximal growth rate [33]: 0.0141 | maximal growth rate [34]: 0.00328 | maximal growth rate [35]: 0.00417 | maximal growth rate [36]: 0.0048 | maximal growth rate [37]: 0.0038 | maximal growth rate [38]: 0.00581 | maximal growth rate [39]: 0.00349 | maximal growth rate [40]: 0.00369 | maximal growth rate [41]: 0.00281 | maximal growth rate (soa1 del [42]): 0.00366 | maximal growth rate [43]: 0.00339 | maximal growth rate [44]: 0.0291 | maximal growth rate [45]: 0.0063

O=S(=O)(O)CCO [Isethionate]
maximal culture density [1]: 0.223 | maximal culture density [2]: 1.59 | maximal culture density [3]: 0.489 | maximal culture density [4]: 1.59 | maximal culture density [5]: 0.232 | maximal culture density [6]: 1.71 | maximal culture density [7]: 1.59 | maximal culture density [8]: 0.242 | maximal culture density [9]: 0.501 | maximal culture density [10]: 1.7 | maximal culture density [11]: 0.269 | maximal culture density [12]: 0.289 | maximal culture density [13]: 0.233 | maximal culture density [14]: 0.332 | maximal culture density [15]: 0.233 | maximal culture density [16]: 1.58 | maximal culture density [17]: 0.195 | maximal culture density (soa1 del [18]): 0.235 | maximal culture density [19]: 0.213 | maximal culture density [20]: 1.61 | maximal culture density [21]: 0.373 | maximal growth rate [25]: 0.00324 | maximal growth rate [26]: 0.0699 | maximal growth rate [27]: 0.0178 | maximal growth rate [28]: 0.0519 | maximal growth rate [29]: 0.00369 | maximal growth rate [30]: 0.0695 | maximal growth rate [31]: 0.0659 | maximal growth rate [32]: 0.00421 | maximal growth rate [33]: 0.0144 | maximal growth rate [34]: 0.0595 | maximal growth rate [35]: 0.00489 | maximal growth rate [36]: 0.0049 | maximal growth rate [37]: 0.00367 | maximal growth rate [38]: 0.00647 | maximal growth rate [39]: 0.00374 | maximal growth rate [40]: 0.0612 | maximal growth rate [41]: 0.00301 | maximal growth rate (soa1 del [42]): 0.00355 | maximal growth rate [43]: 0.00382 | maximal growth rate [44]: 0.0707 | maximal growth rate [45]: 0.00854
